For 18 compounds, GI50 and IC50 results are on record in patent US9580390B2, “Indazole compounds as kinase inhibitors and method of treating cancer with same” (University Health Network, priority 2011, dated 2017).

Assay [1] has as its system ovarian cancer cells (PA-1). Description: Cancer cell line growth inhibition (SRB assay). Format: cell-based. The conditions noted are these: Homo sapiens, PA-1; read-out: Cancer Cell Line GI50 Range PA-1.
Another assay addresses T1, human TTK (Homo sapiens, UniProt P33981).
T1 construct: amino terminal GST fusion of full length human TTK; purchased Invitrogen
T1 sequence (P33981 1-857): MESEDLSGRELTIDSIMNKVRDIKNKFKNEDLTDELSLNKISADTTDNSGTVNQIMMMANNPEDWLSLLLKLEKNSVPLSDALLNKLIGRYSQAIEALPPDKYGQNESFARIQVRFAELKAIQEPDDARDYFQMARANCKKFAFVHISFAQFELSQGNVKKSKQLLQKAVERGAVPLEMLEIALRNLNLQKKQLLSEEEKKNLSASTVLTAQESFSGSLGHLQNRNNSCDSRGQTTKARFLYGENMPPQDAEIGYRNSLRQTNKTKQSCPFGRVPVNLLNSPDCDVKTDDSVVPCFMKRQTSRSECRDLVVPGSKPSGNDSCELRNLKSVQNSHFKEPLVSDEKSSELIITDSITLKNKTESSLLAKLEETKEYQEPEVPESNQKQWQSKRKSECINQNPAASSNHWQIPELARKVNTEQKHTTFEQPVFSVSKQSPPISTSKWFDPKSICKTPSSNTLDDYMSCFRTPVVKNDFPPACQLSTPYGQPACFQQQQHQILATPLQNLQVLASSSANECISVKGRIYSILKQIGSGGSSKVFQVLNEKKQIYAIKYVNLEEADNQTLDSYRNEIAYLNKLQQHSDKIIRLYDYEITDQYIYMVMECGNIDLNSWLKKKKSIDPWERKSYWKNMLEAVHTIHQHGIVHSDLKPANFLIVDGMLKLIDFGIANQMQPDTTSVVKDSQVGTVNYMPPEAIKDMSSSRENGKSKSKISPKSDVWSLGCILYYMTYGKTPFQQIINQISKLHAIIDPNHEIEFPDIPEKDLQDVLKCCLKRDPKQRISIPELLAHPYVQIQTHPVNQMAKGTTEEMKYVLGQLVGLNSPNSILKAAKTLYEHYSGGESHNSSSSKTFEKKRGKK
Description: TTK inhibition assay (indirect ELISA). Format: biochemical. The following applies: read-out: TTK IC50 Range.

Assay [2] deals with colon cancer cells (HCT116). Kind of assay: Cancer cell line growth inhibition (SRB assay). Format: cell-based. The following applies: Homo sapiens, HCT-116; read-out: Cancer Cell Line GI50 Range HCT116.
For the next assay, the system named is Breast cancer cells. Kind of assay: Cancer cell line growth inhibition (SRB assay). Type of assay: cell-based. The conditions noted are these: Homo sapiens; MDA-MB-468; read-out: Cancer Cell Line GI50 Range MDA-MB-468.

As to `O=C(N[C@H](c1ccsc1)C1CC1)c1ccc2[nH]nc(-c3ccc(OC4CCN(C[C@@H](O)C(F)(F)F)CC4)cc3)c2c1` [Example A223, N-((S)-cyclopropyl(thiophen-3-yl)methyl)-3-(4-((1-((R)-3,3,3-trifluoro-2-hydroxypropyl)piperidin-4-yl)oxy)phenyl)-1H-indazole-5-carboxamide], the 50% growth inhibitory concentration (GI50) in assay [1] is 100 to 500 nM; in assay [2], 100 to 500 nM; with Breast cancer cells, greater than 500 nM. For the same compound, the IC50 on human TTK was less than 100 nM.

For the compound `CC(C)CC(NC(=O)c1ccc2[nH]nc(-c3ccc(O[C@H]4C[C@H]5CC[C@@H](C4)N5C=O)cc3)c2c1)c1ccccc1` (stereo partly drawn) [Example A340, 3-(4-(((1R,3R,5S)-8-formyl-8-azabicyclo[3.2.1]octan-3-yl)oxy)phenyl)-N-(3-methyl-1-phenylbutyl)-1H-indazole-5-carboxamide], the results for the GI50 (in assay [1]; in assay [2]; with Breast cancer cells) were less than 100 nM, 100 to 500 nM and 100 to 500 nM, respectively. Also, the IC50 at human TTK is less than 100 nM.

With `CN1CCC(Oc2ccc(-c3n[nH]c4ccc(C(=O)NCC5(OC6CCCC6)CCCCC5)cc34)cc2)CC1` [Example A442, N-((1-(cyclopentyloxy)cyclohexyl)methyl)-3-(4-((1-methylpiperidin-4-yl)oxy)phenyl)-1H-indazole-5-carboxamide], the GI50 (in assay [1]; in assay [2]; in the assay with Breast cancer cells) was greater than 500 nM each time. Moreover, the IC50 at human TTK was less than 100 nM.

As for `CC(C)C[C@H](NC(=O)c1ccc2[nH]nc(-c3ccc(N4C5CCC4COC5)cc3)c2c1)c1ccccc1Cl` [Example A413, 3-(4-((1R,5S)-3-oxa-8-azabicyclo[3.2.1]octan-8-yl)phenyl)-N-((S)-(2-chlorophenyl)-3-methylbulyl)-1H-indazole-5-carboxamide], the results for the GI50 (in assay [1]; in assay [2]; with Breast cancer cells) were less than 100 nM, less than 100 nM and 100 to 500 nM, respectively. Besides, the IC50 on human TTK was less than 100 nM.

Regarding `CN1CC2(CC(O)c3cc(-c4n[nH]c5ccc(C(=O)N[C@H](c6ccccc6)C6CC6)cc45)ccc3O2)C1` (stereo partly drawn) [Example A256, N-((S)-cyclopropyl(phenyl)methyl)-3-(4′-hydroxy-1-methylspiro(azetidine-3,2-chroman]-6′-yl)-1H-indazole-5-carboxamide], the GI50 (in assay [1]; in assay [2]; in the assay on Breast cancer cells) was greater than 500 nM in each case. For the same compound, the IC50 at human TTK lay within 100 to 500 nM.

Turning to `O=C(N[C@@H](c1ccccn1)C1CCCC1)c1ccc2[nH]nc(-c3ccc(N4C5COCC4CC(O)C5)cc3)c2c1` (stereo partly drawn) [Example A425, N-((R)-cyclopentyl(pyridin-2-yl)methyl)-3-(4-((1R,5S,7R)-7-hydroxy-3-oxa-9-azabicyclo[3.3.1]nonan-9-yl)phenyl)-1H-indazole-5-carboxamide], the GI50 (in assay [1]; in assay [2]; in the assay with Breast cancer cells) was less than 100 nM in each case. In addition, the IC50 on human TTK is less than 100 nM.

Regarding `CN1CCC(=O)c2cc(-c3n[nH]c4ccc(C(=O)N[C@H](c5ccccn5)C5CCCC5)cc34)ccc21` [Example A242, (S)-N-(cyclopentyl(pyridin-2-yl)methyl)-3-(1-methyl-4-oxo-1,2,3,4-tetrahydroquinolin-6-yl)-1H-indazole-5-carboxamide], the concentration for 50% growth inhibition (GI50) in assay [1] was 100 to 500 nM; in assay [2], greater than 500 nM; in the assay with Breast cancer cells it was greater than 500 nM. In addition, the IC50 on human TTK is less than 100 nM.

For `CN1CCN(C2(CNC(=O)c3ccc4[nH]nc(-c5ccc(N6CCOCC6)cc5)c4c3)CCCC2)CC1` [Example A467, N-((1-(4-methylpiperazin-1-yl)cyclopentyl)methyl)-3-(4-morpholinophenyl)-1H-indazole-5-carboxamide], the GI50 (in assay [1]; in assay [2]; in the assay with Breast cancer cells) was greater than 500 nM throughout. For the same compound, on human TTK, the IC50 fell in the range of 100 to 500 nM.

For the compound `O=C(NCC1(N2CCOCC2)CCCCC1)c1ccc2[nH]nc(-c3ccc(O[C@H]4C[C@H]5CC[C@@H](C4)N5C4COC4)cc3)c2c1` [Example A507, N-((1-morpholinocyclohexyl)methyl)-3-(4-(((1R,3R,5S)-8-(oxetan-3-yl)-8-azabicyclo[3.2.1]octan-3-yl)oxy)phenyl)-1H-indazole-5-carboxamide], the GI50 (in assay [1]; in assay [2]; in the assay with Breast cancer cells) was 100 to 500 nM throughout. Moreover, the IC50 at human TTK was less than 100 nM.

Regarding `CCC(CC)(CNC(=O)c1ccc2[nH]nc(-c3ccc(OC4CCN(C[C@@H](C)O)CC4)cc3)c2c1)c1ccccc1` [Example A443, (R)-N-(2-ethyl-2-phenylbutyl)-3-(4-((1-(2-hydroxypropyl)piperidin-4-yl)oxy)phenyl)-1H-indazole-5-carboxamide], the GI50 is 100 to 500 nM in assay [1], 100 to 500 nM in assay [2] and greater than 500 nM with Breast cancer cells. For the same compound, the 50% inhibitory concentration (IC50) at human TTK was less than 100 nM.

With `CC(C)(O)CN1CCC(Oc2ccc(-c3n[nH]c4ccc(C(=O)N[C@H](c5ccsc5)C5CC5)cc34)cc2)CC1` [Example A218, (S)-N-(cyclopropyl(thiophen-3-yl)methyl)-3-(4-((1-(2-hydroxy-2-methylpropyl)piperidin-4-yl)oxy)phenyl)-1H-indazole-5-carboxamide], the GI50 (in assay [1]; in assay [2]; with Breast cancer cells) was 100 to 500 nM throughout. Also, the IC50 at human TTK is less than 100 nM.

As for `CN1CCC(CNC(=O)c2ccc3[nH]nc(-c4ccc(N5[C@@H]6CC[C@H]5COC6)cc4)c3c2)(c2ccccc2)CC1` [Example A468, 3-(4-((1R,5S)-3-oxa-8-azabicyclo[3.2.1]octan-8-yl)phenyl)-N-((1-methyl-4-phenylpiperidin-4-yl)methyl)-1H-indazole-5-carboxamide], the GI50 in assay [1] was 100 to 500 nM; in assay [2], 100 to 500 nM; in the assay with Breast cancer cells, greater than 500 nM. In addition, at human TTK, the IC50 was less than 100 nM.

As to `Cn1ccc(=O)c2cc(-c3n[nH]c4ccc(C(=O)N[C@H](c5ccccn5)C5CCCC5)cc34)ccc21` [Example A240, (S)-N-(cyclopentyl(pyridin-2-yl)methyl)-3-(1-methyl-4-oxo-1,4-dihydroquinolin-6-yl)-1H-indazole-5-carboxamide], the GI50 (in assay [1]; in assay [2]; with Breast cancer cells) was greater than 500 nM each time. In addition, the IC50 on human TTK is less than 100 nM.

With `CCC[C@H](NC(=O)c1ccc2[nH]nc(-c3ccc(OC4CC5CCC(C4)N5C4COC4)cc3)c2c1)c1ccccc1` (stereo partly drawn) [Example A344, 3-(4-(((1R,3R,5S)-8-(oxetan-3-yl)-8-azabicyclo[3.2.1]octan-3-yl)oxy)phenyl)-N-((S)-1-phenylbutyl)-1H-indazole-5-carboxamide], the GI50 in assay [1] was 100 to 500 nM; in assay [2], greater than 500 nM; in the assay on Breast cancer cells, greater than 500 nM. In addition, the IC50 at human TTK is less than 100 nM.

Take `CC(C)[C@@H](NC(=O)c1ccc2[nH]nc(-c3ccc(N4CC(N5CCOCC5)C4)cc3)c2c1)c1ccccc1Cl` [Example A317, (R)-N-(1-(2-chlorophenyl)-2-methylpropyl)-3-(4-(3-morpholinoazetidin-1-yl)phenyl)-1H-indazole-5-carboxamide]: the GI50 in assay [1] was less than 100 nM; in assay [2], 100 to 500 nM; with Breast cancer cells it was 100 to 500 nM. Besides, the IC50 on human TTK was less than 100 nM.

Take `C[C@@H](O)CN1CCC(Oc2ccc(-c3n[nH]c4ccc(C(=O)NCC5(OC6CCCC6)CCCCC5)cc34)cc2)CC1` [Example A444, (R)-N-((1-(cyclopentyloxy)cyclohexyl)methyl)-3-(4-((1-(2-hydroxypropyl)piperidin-4-yl)oxy)phenyl)-1H-indazole-5-carboxamide]: the GI50 (in assay [1]; in assay [2]; in the assay on Breast cancer cells) was greater than 500 nM in each case. For the same compound, the IC50 at human TTK is less than 100 nM.

As to `O=CN1C2CCC1CC(Oc1ccc(-c3n[nH]c4ccc(C(=O)N[C@H](c5ccccn5)C5CCCC5)cc34)cc1)C2` (stereo partly drawn) [Example A348, N-((S)-cyclopentyl(pyridin-2-yl)methyl)-3-(4-(((1R,3R,5S)-8-formyl-8-azabicyclo[3.2.1]octan-3-yl)oxy)phenyl)-1H-indazole-5-carboxamide], the GI50 (in assay [1]; in assay [2]; in the assay on Breast cancer cells) was less than 100 nM throughout. Further, at human TTK, the IC50 was less than 100 nM.

Turning to `CN1[C@@H]2CC[C@H]1C[C@@H](Oc1ccc(-c3n[nH]c4ccc(C(=O)NCC5(c6ccccn6)CC5)cc34)cc1)C2` [Example A488], the GI50 (in assay [1]; in assay [2]; in the assay on Breast cancer cells) was greater than 500 nM each time. Moreover, the IC50 on human TTK is less than 100 nM.
